Laboratory results taken from US20110009433A1, “BICYCLIC PYRROLE COMPOUND” (DAINIPPON SUMITOMO PHARMA CO., LTD., priority 2008, published 2011).
Where a name gives a salt, the structure may show the parent alone.

Columns and labels:
[1] = Hygroscopicity measured at room temperature (weight change under moisture adsorption/desorption); format: physicochemical; details: humidity of 0 to 90%
Experimental: (§1) The hygroscopicity was measured at room temperature for each of the crystalline monohydrochloride 0.5 hydrate of Example 1 (compound A) produced by the method of the present invention and the amorphous powders of the compound of Example 6 of International Publication No. 2006/068163 (compound B) produced by a conventional technique.

[2] = Storage stability under a light source: residual rate by HPLC and appearance after two week storage; format: physicochemical; details: for residual rate: HPLC area percentage; for change in color after the stability test (in words) / stability under a light source (in words): both 1000 lux and 4000 lux
Experimental: as §1, with “residual rates after two week storage under a light source of 1000 lux and 4000 lux were” for “hygroscopicity was”, “measured” for “measured at room temperature”
The residual rate (%) of a compound was determined by the area percentage of the residual rate of the compound measured using high performance liquid chromatography (HPLC). The HPLC measurement conditions were as follows:
Column: CAPCELL PAK C18 UG120 (4.6 mm I.D.×250 mm)
Mobile phase (A/B): 10 mM sodium phosphate buffer (pH=6.9)/CH3CN
Mobile phase (ratio of B): 30% (0 min) →90% (45 min)
Column temperature: 40° C.

human recombinant DPP IV = target: T1, human recombinant DPP IV (Homo sapiens, UniProt P27487); experiment: In vitro DPP-IV inhibitory action measurement test; format: biochemical; details: preincubated 100 to 110 minutes, substrate Gly-Pro-MCA 40 μmol/L
T1 construct: purchased R&D system
Experimental: Solutions containing test compounds were prepared at various concentrations and added to microassay plates. Further, human recombinant DPP IV (R&D system) was added and preincubated at room temperature for 100 to 110 minutes, followed by adding a substrate (Glycyl-L-proline 4-methylcoumaryl-7-amide, Peptide Institute, Inc.; final concentration: 40 μmol/L) to start the enzymatic reaction. The enzymatic reaction rate was determined by measuring the fluorescence change with time for 10 minutes after 10 minutes elapsed from the start of addition of the substrate using a fluorescence plate reader (excitation wavelength: 380 nm, measurement wavelength: 460 nm). From the results obtained, the compound concentration showing 50% inhibition was calculated as an IC50 value.

[3] = two week storage, 1000 Lux, 11% RH
[4] = two week storage, 4000 Lux, 10% RH

T1 sequence (P27487 whole entry): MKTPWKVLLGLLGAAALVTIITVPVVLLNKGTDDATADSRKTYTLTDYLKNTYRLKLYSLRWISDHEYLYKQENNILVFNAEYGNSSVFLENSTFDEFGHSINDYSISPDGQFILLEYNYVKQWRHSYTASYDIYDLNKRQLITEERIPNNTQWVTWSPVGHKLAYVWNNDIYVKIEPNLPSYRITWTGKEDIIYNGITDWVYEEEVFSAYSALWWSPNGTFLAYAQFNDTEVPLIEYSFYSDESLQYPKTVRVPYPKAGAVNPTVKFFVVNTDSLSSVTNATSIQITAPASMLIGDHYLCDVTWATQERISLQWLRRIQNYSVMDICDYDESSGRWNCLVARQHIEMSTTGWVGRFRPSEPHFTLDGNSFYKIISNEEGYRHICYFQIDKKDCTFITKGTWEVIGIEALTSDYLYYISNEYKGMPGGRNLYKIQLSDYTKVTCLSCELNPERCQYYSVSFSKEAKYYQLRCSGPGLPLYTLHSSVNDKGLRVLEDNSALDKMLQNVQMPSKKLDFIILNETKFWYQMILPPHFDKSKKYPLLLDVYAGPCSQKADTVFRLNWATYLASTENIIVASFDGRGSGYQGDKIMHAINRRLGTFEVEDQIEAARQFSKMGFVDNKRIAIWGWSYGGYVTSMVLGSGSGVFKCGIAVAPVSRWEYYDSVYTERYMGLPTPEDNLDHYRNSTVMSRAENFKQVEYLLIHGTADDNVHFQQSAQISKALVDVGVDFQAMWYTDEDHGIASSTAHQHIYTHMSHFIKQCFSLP

For `Cn1c(=O)c2c(cc(N3CCC[C@@H](N)C3)n2Cc2cc(F)ccc2Cl)n(C)c1=O` (as salt: hydrochloride) (hydrate or solvate) [Compound A, 6-[(3R)-3-aminopiperidin-1-yl]-5-(2-chloro-5-fluorobenzyl)-1,3-dimethyl-1H-pyrrolo[3,2-d]pyrimidine-2,4(3H,5H)-dione monohydrochloride hemihydrate], which melting point is on record?
Its melting point is 205 to 208 °C.

For `Cl.Cn1c(=O)c2c(cc(N3CCC[C@@H](N)C3)n2Cc2cc(F)ccc2Cl)n(C)c1=O` [Compound B, reference compound], which “change in the weight (hygroscopicity)” value [1] is on record?
Its value is −5.0 to 9.0%.

And the “appearance (color)” value ([2]; Initial)?
Its value is “Pale yellow”.

And the residual rate ([2]; Initial)?
The residual rate was 100.0%.

What about the “change in color after the stability test (in words)” value ([2]; two week storage) of the same compound?
Its value is “apparently changed in color to yellow”.

What about the “stability under a light source (in words)” value ([2]; two week storage) of the same compound?
Its value is “low stability”.

What about the “appearance (color)” value [2, 3] of the same compound?
Its value is “Yellow”.

And the residual rate [2, 3]?
The residual rate was 99.2%.

What about the “appearance (color)” value [2, 4] of the same compound?
The value was “Yellow”.

And the residual rate [2, 4]?
The residual rate was 97.4%.

With `Cn1c(=O)c2c(cc(N3CCC[C@@H](N)C3)n2Cc2cc(F)ccc2Cl)n(C)c1=O` [Compound A, 6-[(3R)-3-aminopiperidin-1-yl]-5-(2-chloro-5-fluorobenzyl)-1,3-dimethyl-1H-pyrrolo[3,2-d]pyrimidine-2,4(3H,5H)-dione monohydrochloride hemihydrate] as the compound, how does the “change in the weight (hygroscopicity)” value [1] read?
The value was “no change in the weight”.

And the “appearance (color)” value ([2]; Initial)?
Its value is “Pale yellow”.

What about the residual rate ([2]; Initial) of the same compound?
The residual rate was 100.0%.

What about the “change in color after the stability test (in words)” value ([2]; two week storage) of the same compound?
The value was “no change in color”.

And the “stability under a light source (in words)” value ([2]; two week storage)?
The value was “extremely high stability”.

What about the “appearance (color)” value [2, 3] of the same compound?
The value was “Pale yellow”.

What about the residual rate [2, 3] of the same compound?
Its residual rate is 100.0%.

And the “appearance (color)” value [2, 4]?
Its value is “Pale yellow”.

What about the residual rate [2, 4] of the same compound?
Its residual rate is 99.9%.

And the IC50 (human recombinant DPP IV)?
Its IC50 is 0.71 nM.
